The values that follow come from PubChem BioAssay (NCI).

Among the test systems are DMS 114 small cell lung; XF 498 CNS; KM20L2 colon; DLD-1 colon; HOP-18 NSCLC; RXF-631 renal; MDA-N.
Test in all cases: DTP human tumour cell line panel, 48 h

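Five compound concentrations were applied to cells in 96-well plates for 48 hours; endpoints were derived by simple linear interpolation of the resulting dose-response curve. The concentration for 50% growth inhibition is given as GI50. TGI denotes the concentration required for complete inhibition of growth.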

One may read the TGI as the concentration at which net growth stops. High values mean less potent growth arrest, low ones more potent growth arrest. Take `O=C1C2Nc3ccccc3SC2C(=O)N1c1ccc(Br)cc1` (stereo not given): the TGI is 46.4 µM in the assay on DMS 114 small cell lung, above 100 µM in the assay with XF 498 CNS, above 100 µM with KM20L2 colon and above 100 µM in the assay with DLD-1 colon.

On to `COc1ccc(C/C(=N/O)C(=O)NCCc2cc(Br)c(OCCCN(C)C)c(Br)c2)cc1Br`, for which the TGI was 0.0986 µM with HOP-18 NSCLC; 36.5 µM in the assay with DMS 114 small cell lung; 25.6 µM in the assay with XF 498 CNS; 40.6 µM with KM20L2 colon; 25.3 µM in the assay with DLD-1 colon.

As for `CCC(C)CCOC(=O)c1ccc(N=Cc2ccc(C=Nc3ccc(C(=O)OCCC(C)CC)cc3)cc2)cc1` (stereo not given), the TGI with HOP-18 NSCLC, in the assay with DMS 114 small cell lung, with KM20L2 colon and in the assay with DLD-1 colon was above 100 µM each time.

Turning to `COC(=O)C1CCc2c1c(=O)n1c([nH]c3ccccc31)c2C#N` (stereo not given), the TGI with HOP-18 NSCLC, in the assay with DMS 114 small cell lung, in the assay with XF 498 CNS, in the assay with KM20L2 colon and in the assay with DLD-1 colon was above 100 µM each time.

In the case of `O=C(NCCCCCCCCCCCCNC(=O)c1cccc2ccccc12)c1cccc2ccccc12`, the TGI in the assay on HOP-18 NSCLC is above 100 µM; with DMS 114 small cell lung, above 100 µM; with XF 498 CNS, above 75.8 µM; in the assay with RXF-631 renal it was above 100 µM; with KM20L2 colon, above 100 µM; in the assay with DLD-1 colon it was above 100 µM.

Consider `Nc1ncnc2c1ncn2[C@]1(CO)C=C(CO)C(O)C1O` (stereo not given in full), for which the TGI in the assay on HOP-18 NSCLC, with DMS 114 small cell lung, with XF 498 CNS, with RXF-631 renal, in the assay with KM20L2 colon and with DLD-1 colon was above 100 µM in each case.

The molecule `CC1=CC(=O)C2=C(C)CCC3C(C)C(=O)OC3C12` (stereo not given) gave a TGI with MDA-N above 100 µM.

As to `Cc1ccc(S(=O)(=O)OCCn2cnc3nc(NC(=O)c4ccccc4)[nH]c(=O)c32)cc1`, the TGI with HOP-18 NSCLC, with DMS 114 small cell lung, with KM20L2 colon and in the assay on DLD-1 colon was above 100 µM each time.

For the molecule `COC(=O)c1n[nH]c(C)c1N=NN(C)CCC#N`, the TGI in the assay on MDA-N was above 100 µM.

Take `CC(C)C1=CC(=O)C(C)(C2C(O)CC3(C)C4CC=C5C(CCC(OC6OC(CO)C(O)C(O)C6OC6OC(C)C(O)C(O)C6O)C5(C)C)C4(C)C(=O)CC23C)O1` (stereo not given): the total growth inhibition concentration (TGI) in the assay with MDA-N is above 100 µM.

As for `COc1ccc2c(c1OC)C[C@@H]1c3c(cc4c(c3-2)OCO4)CCN1C`, the TGI with MDA-N is above 100 µM.

Consider `CC1=Nc2ccccc2S/C1=C(/C)NNS(=O)(=O)c1ccc(C)cc1`, for which the TGI in the assay with HOP-18 NSCLC, in the assay with DMS 114 small cell lung, in the assay with RXF-631 renal and in the assay on KM20L2 colon was above 100 µM throughout.

In the assay with MDA-N, `c1cc(NNc2cccc(-c3nn[nH]n3)c2)cc(-c2nn[nH]n2)c1` showed a TGI above 100 µM.

Regarding `O=C1CSCc2sccc21`, the TGI with MDA-N was above 100 µM.

As to `O=C(/C=C/c1cc(Cl)cc(Cl)c1O)c1cccc(O)c1`, the TGI with HOP-18 NSCLC, in the assay on DMS 114 small cell lung, in the assay on KM20L2 colon and in the assay on DLD-1 colon was above 100 µM in each case.

`COc1cc2c(cc1OC)[C@@H](Nc1ccc(C#N)cc1)C1COC(=O)[C@@H]1C2c1cc(OC)c(O)c(OC)c1` (stereo not given in full): the TGI in the assay on HOP-18 NSCLC is 95 µM; in the assay with MDA-N it was above 100 µM; in the assay on KM20L2 colon, 95 µM; with DLD-1 colon, 9.29 µM.

Molecule `CCOC(=O)C1Cc2c(cc3c4c(cccc24)N(C(C)=O)C3)N(C)C1` (stereo not given) displayed a TGI in the assay on MDA-N of 3.29 µM.

For the molecule `Cc1cn(C2CC(O)C(COC(=O)c3ccccc3)O2)c(=O)[nH]c1=O` (stereo not given), the TGI in the assay on HOP-18 NSCLC, in the assay with XF 498 CNS, in the assay on RXF-631 renal, with KM20L2 colon and in the assay on DLD-1 colon was above 100 µM each time.

With `COC(=O)C(Cc1cc(OC)c(OC)c(OC)c1)C(=O)OC`, the TGI in the assay on DMS 114 small cell lung, in the assay on XF 498 CNS, in the assay on RXF-631 renal, with KM20L2 colon and in the assay with DLD-1 colon was above 320 µM each time.

Molecule `c1ccc2sc(SCCSc3nc4ccccc4s3)nc2c1` displayed a TGI in the assay on MDA-N above 100 µM.

Consider `N#Cc1c(-c2ccc(Cl)c(Cl)c2)c(-c2ccc(Cl)c(Cl)c2)nn(CC(=O)O)c1=O`, for which the TGI is above 100 µM in the assay with HOP-18 NSCLC; 98.4 µM in the assay with XF 498 CNS; above 100 µM in the assay with RXF-631 renal; 56.8 µM in the assay on KM20L2 colon; above 100 µM in the assay with DLD-1 colon.

With `COc1ccc(/C=C(/C#N)C(N)=O)c(OC)c1`, the TGI with MDA-N came to 52.6 µM.

In the case of `COC(=O)CC(NC(=O)OCc1ccccc1)C(C(C)=O)C(=O)OCc1ccccc1` (stereo not given), the TGI in the assay with HOP-18 NSCLC, in the assay with DMS 114 small cell lung, in the assay on KM20L2 colon and in the assay with DLD-1 colon was above 31.6 µM each time.

`COc1ccc(NC(=O)C(=O)c2c(O)c3ccc(O)cc3oc2=O)c([N+](=O)[O-])c1`: the TGI in the assay on DMS 114 small cell lung, in the assay on RXF-631 renal, in the assay with KM20L2 colon and with DLD-1 colon was above 100 µM throughout.

As to `C[C@@H](NC1CCCC[C@H]1O)c1ccccc1` (stereo not given in full), the TGI in the assay with HOP-18 NSCLC, with XF 498 CNS, with KM20L2 colon and in the assay on DLD-1 colon was above 100 µM in each case.

`CN1c2ccccc2N(C(=O)c2ccc([N+](=O)[O-])cc2)C(CC(=O)O)c2cccn21` (stereo not given): the total growth inhibition concentration (TGI) in the assay with DMS 114 small cell lung, with XF 498 CNS, with KM20L2 colon and with DLD-1 colon was above 100 µM throughout.

For `Cn1c2c(c3ccccc31)CCN(CCCCN1CCCCC1)C2=O`, the TGI with HOP-18 NSCLC, in the assay on XF 498 CNS, in the assay with RXF-631 renal, with KM20L2 colon and with DLD-1 colon was above 100 µM each time.

As for `C/C(=C1/N=C(c2cc([N+](=O)[O-])ccc2Cl)N(c2cccc(C)c2)C1=O)c1cc2ccccc2oc1=O`, the TGI in the assay with HOP-18 NSCLC was above 100 µM; in the assay on DMS 114 small cell lung, above 100 µM; in the assay on XF 498 CNS, 81.2 µM; in the assay on RXF-631 renal, above 100 µM; in the assay with KM20L2 colon, above 100 µM; in the assay with DLD-1 colon, above 100 µM.

As to `CN(CCN1C(=O)c2cc([N+](=O)[O-])cc3cc([N+](=O)[O-])cc(c23)C1=O)CCN1C(=O)c2cc([N+](=O)[O-])cc3cc([N+](=O)[O-])cc(c23)C1=O`, the TGI in the assay with HOP-18 NSCLC is above 100 µM; with DMS 114 small cell lung, 46.9 µM; with XF 498 CNS, 23.1 µM; in the assay on KM20L2 colon it was above 33.5 µM; with DLD-1 colon, 18.8 µM.

The term GI50 denotes the concentration at which growth is held to half of that of the control. As for `COc1cc(Nc2nc3cc(N)cc(N)c3nc2-c2ccccc2)cc(OC)c1OC`, in the assay with MDA-N, the GI50 is 10.5 µM and the TGI stood at 31.3 µM.

For the molecule `CC(C)(O)[C@@H]1CC[C@@]2(C)CCCC(O)C2(O)C1` (stereo not given in full), the TGI with HOP-18 NSCLC, with DMS 114 small cell lung, with XF 498 CNS, in the assay with RXF-631 renal, with KM20L2 colon and with DLD-1 colon was above 100 µM throughout.

For `Cc1nc(-n2nc(-c3ccccc3)cc2-c2ccccc2)sc1C(=O)/C=C/c1ccc(/C=C/C(=O)c2sc(-n3nc(-c4ccccc4)cc3-c3ccccc3)nc2C)cc1`, the total growth inhibition concentration (TGI) in the assay on DMS 114 small cell lung is above 100 µM; in the assay on XF 498 CNS it was 41.4 µM; in the assay with RXF-631 renal, 78.9 µM; in the assay with KM20L2 colon, 36.4 µM; in the assay on DLD-1 colon, 44.8 µM.

Regarding `O=C1NC(Cc2ccc(O)cc2)C(=O)N2CCCC12` (stereo not given), the TGI in the assay on HOP-18 NSCLC, in the assay with DMS 114 small cell lung, with RXF-631 renal, in the assay with KM20L2 colon and in the assay on DLD-1 colon was above 100 µM throughout.

Consider `COC(=O)CCC(NC(=S)N/N=C(\C)c1cnc2ccccc2n1)C(=O)OC` (stereo not given), for which the TGI in the assay with HOP-18 NSCLC was above 100 µM; with XF 498 CNS, above 100 µM; in the assay on RXF-631 renal, above 100 µM; with KM20L2 colon, 46 µM; in the assay with DLD-1 colon, above 100 µM.

As for `CC(=O)O[C@H]1C(=O)[C@@]2(C)C(C(OC(=O)c3ccccc3)[C@]3(O)C[C@H](OC(=O)C(OC(=O)CCCC(=O)NCCCN(C)C)C(NC(=O)c4ccccc4)c4ccccc4)C(C)=C1C3(C)C)C1(OC(C)=O)COC1C[C@@H]2O` (stereo not given in full), the TGI is 35 µM in the assay with HOP-18 NSCLC; below 0.01 µM with DMS 114 small cell lung; below 0.0171 µM with XF 498 CNS; below 0.01 µM with MDA-N; above 100 µM in the assay with RXF-631 renal; below 0.01 µM in the assay with KM20L2 colon. The molecule also returned a TGI with DLD-1 colon above 40.9 µM.

As for `CN(C)C=Nc1ccn(CCO)c(=O)n1`, the TGI in the assay with HOP-18 NSCLC, in the assay on DMS 114 small cell lung, with RXF-631 renal, with KM20L2 colon and with DLD-1 colon was above 100 µM each time.

`COC(=O)C(C(=O)C(=O)Nc1c(C)cccc1C)c1cnc2ccccc2n1` (stereo not given): the TGI with HOP-18 NSCLC, with DMS 114 small cell lung, with XF 498 CNS, with RXF-631 renal and in the assay with KM20L2 colon was above 100 µM each time.

The molecule `CC(C)c1[nH]nc(C(N)=O)c1N=NN(C)C` had a TGI in the assay with MDA-N above 100 µM.

In the case of `N#CCCN(c1ccc(C=Nc2ccccc2)cc1)S(=O)(=O)c1ccccc1`, the total growth inhibition concentration (TGI) with DMS 114 small cell lung, with XF 498 CNS and in the assay on DLD-1 colon was above 100 µM each time.

On to `O=C(N/C(=C\c1ccc(Cl)cc1)c1nc2ccccc2[nH]1)c1ccccc1`, for which the TGI with HOP-18 NSCLC worked out at 50.3 µM; in the assay with XF 498 CNS, 36.9 µM; in the assay with KM20L2 colon it was 30.8 µM; in the assay on DLD-1 colon, 52.2 µM.

For the molecule `CN1C(=O)CCC1(O)C1C=CC=CC1` (stereo not given), the TGI with DMS 114 small cell lung, in the assay on XF 498 CNS, in the assay on RXF-631 renal, with KM20L2 colon and with DLD-1 colon was above 100 µM in each case.
